Patent US12370235B2, “Synthetic, non-natural antimicrobial peptides inspired by Staphylococcus auricularis delta toxin” (University of Saskatchewan, priority 2021, dated 2025)
Ends that are not written are not given here.

What was measured:
[1] = system: S. aureus ATCC 29213; assay: MIC, broth dilution; type: cell-based, Staphylococcus aureus; conditions: Table 5; STIP3 variants, highest concentration 100 μg/mL
Procedure, shortened: (§1)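 Peptides (95% purity) were serially diluted 2-fold and mixed with bacteria diluted to OD 6×10^−4 in cation-adjusted Mueller Hinton broth. Standing cultures were incubated overnight at 37° C. MIC was the lowest peptide concentration with no observed growth.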

[2] = system: S. aureus ATCC 33592 (MRSA SCCmec type III); assay: MIC, broth dilution; type: cell-based, Staphylococcus aureus; conditions: Table 5; STIP3 variants, highest concentration 100 μg/mL
Procedure, shortened: as §1

[3] = system: S. aureus ATCC BAA-1683 (MRSA SCCmec type IV); assay: MIC, broth dilution; type: cell-based, Staphylococcus aureus; conditions: Table 5; STIP3 variants, highest concentration 100 μg/mL
Procedure, shortened: as §1

[4] = system: S. aureus ATCC BAA-2094 (MRSA SCCmec type V); assay: MIC, broth dilution; type: cell-based, Staphylococcus aureus; conditions: Table 5; STIP3 variants, highest concentration 100 μg/mL
Procedure, shortened: as §1

[5] = system: S. aureus ATCC BAA-2313 (MRSA SCCmec type XI); assay: MIC, broth dilution; type: cell-based, Staphylococcus aureus; conditions: Table 5; STIP3 variants, highest concentration 100 μg/mL
Procedure, shortened: as §1

[6] = system: S. aureus ATCC BAA-41 (MRSA SCCmec type II); assay: MIC, broth dilution; type: cell-based, Staphylococcus aureus; conditions: Table 5; STIP3 variants, highest concentration 100 μg/mL
Procedure, shortened: as §1

[7] = system: S. aureus ATCC BAA-42 (MRSA SCCmec type VI); assay: MIC, broth dilution; type: cell-based, Staphylococcus aureus; conditions: Table 5; STIP3 variants, highest concentration 100 μg/mL
Procedure, shortened: as §1

[8] = system: S. aureus ATCC BAA-44 (MRSA SCCmec type I); assay: MIC, broth dilution; type: cell-based, Staphylococcus aureus; conditions: Table 5; STIP3 variants, highest concentration 100 μg/mL
Procedure, shortened: as §1

[9] = system: Mannheimia haemolytica ATCC 33393; assay: MIC, broth dilution; type: cell-based; conditions: Table 11; highest concentration 25 μg/mL
Procedure, shortened: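 Read-out is the lowest peptide concentration showing no growth after an overnight standing culture at 37 °C. Two-fold serial dilutions of 95%-pure peptide were tested against M. haemolytica ATCC 33393 at OD 6×10^−4 in cation-adjusted MH broth.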

[10] = system: C. albicans MYA-2876; assay: MIC, YPD broth; type: cell-based, Candida albicans; conditions: Table 8
Procedure, shortened: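 Yeast cells were diluted in YPD broth, and 180 μl aliquots were mixed with 20 μl of peptide from 2-fold serial dilutions in flat-bottom 96-well microtitre plates. Wells receiving 20 μl sterile water served as controls. After standing incubation overnight at 37° C, the MIC was taken as the lowest peptide concentration with no visible microbial growth.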

[11] = system: Candida duobushaemulonii AR 391; assay: MIC, YPD broth, CDC and FDA AR Candida isolate panel; type: cell-based
Procedure, shortened: (§2)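 Using peptides at 95% purity, yeast suspensions adjusted to an optical density of […] received two-fold diluted peptide, were held static overnight at 37° C, and were compared against sterile-water controls.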

[12] = system: Candida duobushaemulonii AR 392; assay: as above; type: cell-based
Procedure, shortened: as §2

[13] = system: Candida duobushaemulonii AR 394; assay: as above; type: cell-based
Procedure, shortened: as §2

[14] = system: Candida haemulonii AR 393; assay: as above; type: cell-based; conditions: Table 9 below the line: only 200 or 100 μg/mL tested; values reported as 100 are ≤100 μg/mL
Procedure, shortened: as §2

[15] = system: Candida haemulonii AR 395; assay: as above; type: cell-based; conditions: Table 9 below the line: only 200 or 100 μg/mL tested; values reported as 100 are ≤100 μg/mL
Procedure, shortened: as §2

[16] = system: Candida krusei AR 397; assay: as above; type: cell-based
Procedure, shortened: as §2

[17] = system: Candida lusitaniae AR 398; assay: as above; type: cell-based
Procedure, shortened: as §2

[18] = system: Kodamae ohmeri AR 396; assay: as above; type: cell-based
Procedure, shortened: as §2

[19] = system: Saccharomyces cerevisiae AR 399; assay: as above; type: cell-based
Procedure, shortened: as §2

[20] = system: Saccharomyces cerevisiae AR 400; assay: as above; type: cell-based
Procedure, shortened: as §2

[21] = Circular dichroism spectroscopy; type: physicochemical; conditions: CD, 50% (v/v) TFE
From the text: The δ-toxins and the PSMs are characterized as α-helical peptides that form amyloid fibers^48. Although the propensity of individual peptides to form amyloids is correlated to their cytotoxicity^49, the amyloid form is not directly implicated in cell membrane disruption^50. […] CD spectroscopy was used to investigate the secondary structure of a subset of peptides within the collection (FIG. 4A, Table 5). The STIP variants adopted α-helical forms in 50% (v/v) trifluoroethanol (TFE), though unlike the full-length S. auricularis δ-toxin, they were unstructured in water. […] Specifically, peptides characterized by the greatest and least α-helical content in TFE had MICs above the highest tested threshold.
Circular dichroism spectroscopy. Peptides were dissolved in water at concentrations between 0.3 and 0.5 mg/mL. CD spectra were recorded on an Applied Photophysics Chirascan Plus CD spectrophotometer at room temperature in a 0.1 cm path-length quartz cuvette. Spectra were recorded from 180 to 260 nm.

[22] = system: C. albicans Y537; assay: MIC, YPD broth; type: cell-based, Candida albicans; conditions: Table 8
[23] = Table 9 below the line: only 200 or 100 μg/mL tested, values reported as 100 are ≤100 μg/mL
[24] = Table 9 top part: titrations from 1.56 to 100 μg/mL

Substance | MIC S. aureus ATCC 29213 [1] [µg/mL] | MIC S. aureus ATCC 33592 (III) [2] [µg/mL] | MIC S. aureus ATCC BAA 1683 (IV) [3] | MIC S. aureus ATCC BAA 2094 (V) [4] [µg/mL] | MIC S. aureus ATCC BAA 2313 (XI) [5] [µg/mL] | MIC S. aureus ATCC BAA 41 (II) [6] [µg/mL] | MIC S. aureus ATCC BAA 42 (VI) [7] [µg/mL] | MIC S. aureus ATCC BAA 44 (I) [8] [µg/mL] | MIC (μg/mL) M. haemolytica [9] [µg/mL] | MIC C. albicans MYA-2876 [10] [µg/mL] | MIC (μg/mL) Candida duobushaemulonii AR 391 [11, 23] | MIC (μg/mL) Candida duobushaemulonii AR 392 [12, 23] | MIC (μg/mL) Candida duobushaemulonii AR 394 [13, 23] | MIC (μg/mL) Candida haemulonii AR 393 [14] | MIC (μg/mL) Candida haemulonii AR 395 [15] | MIC (μg/mL) Candida krusei AR 397 [16, 23] [µg/mL] | MIC (μg/mL) Candida lusitaniae AR 398 [17, 23] [µg/mL] | MIC (μg/mL) Kodamae ohmeri AR 396 [18, 23] [µg/mL] | MIC (μg/mL) Saccharomyces cerevisiae AR 399 [19, 23] [µg/mL] | α helicity (%) [21] [%] | further results
TVKGLVKWILATVKKFA [STIP3-16, TVKGLVKWILATVKKFA] | 100 | 50 | > (no inhibition was observed at the highest concentration of peptide tested: 100 μg/mL for the STIP3 variants) | 100 | 100 | 50 | 50 | 100 | 6.25 | 12.5 | > (values below the line were determined using two concentrations of peptide 200 or 100 μg/mL) | > (values below the line were determined using two concentrations of peptide 200 or 100 μg/mL) | > (values below the line were determined using two concentrations of peptide 200 or 100 μg/mL) | > (values below the line were determined using two concentrations of peptide 200 or 100 μg/mL) | > (values below the line were determined using two concentrations of peptide 200 or 100 μg/mL) | ≤ 100 | ≤ 100 | ≤ 100 | ≤ 100 | 45 | MIC (μg/mL) Saccharomyces cerevisiae AR 400 [20, 23]: ≤ 100 µg/mL
TVGGLVKWILATVKKFA-NH2 [STIP3-28, TVGGLVKWILATVKKFA-NH2] | 25 | 6.25 | 12.5 µg/mL | 6.25 | 12.5 | 12.5 | 12.5 | 12.5 | 12.5 | 12.5 | > (values below the line were determined using two concentrations of peptide 200 or 100 μg/mL) | > (values below the line were determined using two concentrations of peptide 200 or 100 μg/mL) | > (values below the line were determined using two concentrations of peptide 200 or 100 μg/mL) | > (values below the line were determined using two concentrations of peptide 200 or 100 μg/mL) | ≤ 100 µg/mL | ≤ 100 | ≤ 100 | ≤ 100 | ≤ 100 | 75 | MIC C. albicans Y537 [22]: 25 µg/mL; MIC (μg/mL) Saccharomyces cerevisiae AR 400 [20, 23]: ≤ 100 µg/mL
TVKGLVKWILNVVKKFA [STIP3-14, TVKGLVKWILNVVKKFA] | 25 | 12.5 | 25 µg/mL | 50 | 12.5 | 25 | 25 | 25 |  | 12.5 |  |  |  |  |  |  |  |  |  | 64 | MIC C. albicans Y537 [22]: 50 µg/mL; MIC (μg/mL) Candida duobushaemulonii AR 391 [11, 24]: 50 µg/mL; MIC (μg/mL) Candida duobushaemulonii AR 392 [12, 24]: 50 µg/mL; MIC (μg/mL) Candida duobushaemulonii AR 394 [13, 24]: 100 µg/mL; MIC (μg/mL) Candida krusei AR 397 [16, 24]: 12.5 µg/mL; MIC (μg/mL) Candida lusitaniae AR 398 [17, 24]: 6.25 µg/mL; MIC (μg/mL) Kodamae ohmeri AR 396 [18, 24]: 25 µg/mL; MIC (μg/mL) Saccharomyces cerevisiae AR 399 [19, 24]: 25 µg/mL; MIC (μg/mL) Saccharomyces cerevisiae AR 400 [20, 24]: 6.25 µg/mL
